Reference: ChEMBL document CHEMBL1128944, “Potent cyclic urea HIV protease inhibitors with benzofused heterocycles as P2/P2 groups” (Bioorg Med Chem Lett, 1996)

Key:
[1] = target: Human immunodeficiency virus type 1 protease (Human immunodeficiency virus 1) (UniProt Q72874); assay: Inhibitory activity against HIV-1 RF infected MT-2 cells; type: functional, cell-based; conditions: MT2
[2] = target: Human immunodeficiency virus type 1 protease (Human immunodeficiency virus 1, UniProt Q72874); assay: Inhibitory activity was evaluated against HIV protease
[3] = Plasma Clearance was evaluated in rats, iv; type: ADME, organism-based; conditions: rat
[4] = Clearance value was evaluated in dog plasma; type: ADME, organism-based, Canis lupus familiaris
[5] = Half life period was evaluated in dog; type: ADME, organism-based, Canis lupus familiaris; conditions: in vivo
[6] = Half life period was evaluated in rats; type: ADME, organism-based; conditions: rat, in vivo
[7] = Maximum concentration was evaluated in dog plasma; type: ADME, organism-based, Canis lupus familiaris
[8] = Bioavailability was evaluated in dog; type: ADME, organism-based, Canis lupus familiaris; conditions: in vivo

SMILES	IC90 [1] [nM]	Ki [2] [nM]	also measured
O=C1N(Cc2ccc3nc(O)sc3c2)[C@H](Cc2ccccc2)[C@H](O)[C@@H](O)[C@@H](Cc2ccccc2)N1Cc1ccc2nc(O)sc2c1	109	0.91	–
O=C1N(Cc2ccc3[nH]cnc3c2)[C@H](Cc2ccccc2)[C@H](O)[C@@H](O)[C@@H](Cc2ccccc2)N1Cc1ccc2[nH]cnc2c1	19000	11	–
Nc1nc2ccc(CN3C(=O)N(Cc4ccc5nc(N)sc5c4)[C@H](Cc4ccccc4)[C@H](O)[C@@H](O)[C@H]3Cc3ccccc3)cc2s1	270	5.7	–
Nc1nc2ccc(CN3C(=O)N(Cc4ccc5nc(N)oc5c4)[C@H](Cc4ccccc4)[C@H](O)[C@@H](O)[C@H]3Cc3ccccc3)cc2o1	84	0.2	–
O=C1Cc2cc(CN3C(=O)N(Cc4ccc5c(c4)CC(=O)N5)[C@H](Cc4ccccc4)[C@H](O)[C@@H](O)[C@H]3Cc3ccccc3)ccc2N1	370	0.14	–
O=C1N(Cc2ccc3[nH]ncc3c2)[C@H](Cc2ccccc2)[C@H](O)[C@@H](O)[C@@H](Cc2ccccc2)N1Cc1ccc2[nH]ncc2c1	8	0.018	clearance [3]: 3.33 mL/min/kg; clearance [4]: 18.3 mL/min/kg; half-life [5]: 2 h; half-life [6]: 2.7 h; Cmax [7]: 600 ng/mL; bioavailability [8]: 13%
O=C1N(Cc2ccc3[nH]c(O)nc3c2)[C@H](Cc2ccccc2)[C@H](O)[C@@H](O)[C@@H](Cc2ccccc2)N1Cc1ccc2[nH]c(O)nc2c1	> 65000	< 0.01	–
O=C1CNc2cc(CN3C(=O)N(Cc4ccc5c(c4)NCC(=O)N5)[C@H](Cc4ccccc4)[C@H](O)[C@@H](O)[C@H]3Cc3ccccc3)ccc2N1	7700	6.1	–
O=C1N(Cc2ccc3nc(O)oc3c2)[C@H](Cc2ccccc2)[C@H](O)[C@@H](O)[C@@H](Cc2ccccc2)N1Cc1ccc2nc(O)oc2c1	40	0.18	–
O=C1N(Cc2ccc3[nH]nnc3c2)[C@H](Cc2ccccc2)[C@H](O)[C@@H](O)[C@@H](Cc2ccccc2)N1Cc1ccc2[nH]nnc2c1	530	–	–
O=C1N(Cc2ccc3nn[nH]c3c2)[C@H](Cc2ccccc2)[C@H](O)[C@@H](O)[C@@H](Cc2ccccc2)N1Cc1ccc2nn[nH]c2c1	–	0.09	–
O=C1N(Cc2ccc3c[nH]nc3c2)[C@H](Cc2ccccc2)[C@H](O)[C@@H](O)[C@@H](Cc2ccccc2)N1Cc1ccc2c[nH]nc2c1	49	0.018	–
O=C1N(Cc2ccc3sc(O)nc3c2)[C@H](Cc2ccccc2)[C@H](O)[C@@H](O)[C@@H](Cc2ccccc2)N1Cc1ccc2sc(O)nc2c1	–	130	–
O=C1N(Cc2ccc3oc(O)nc3c2)[C@H](Cc2ccccc2)[C@H](O)[C@@H](O)[C@@H](Cc2ccccc2)N1Cc1ccc2oc(O)nc2c1	579	3.9	–
Nc1nc2cc(CN3C(=O)N(Cc4ccc5sc(N)nc5c4)[C@H](Cc4ccccc4)[C@H](O)[C@@H](O)[C@H]3Cc3ccccc3)ccc2s1	950	190	–
O=C1N(Cc2ccc3nc(S)oc3c2)[C@H](Cc2ccccc2)[C@H](O)[C@@H](O)[C@@H](Cc2ccccc2)N1Cc1ccc2nc(S)oc2c1	5100	4.8	–
O=C1N(Cc2ccc3c(c2)NS(=O)(=O)N3)[C@H](Cc2ccccc2)[C@H](O)[C@@H](O)[C@@H](Cc2ccccc2)N1Cc1ccc2c(c1)NS(=O)(=O)N2	32000	0.19	–
O=C1N(Cc2ccc3nc(O)cnc3c2)[C@H](Cc2ccccc2)[C@H](O)[C@@H](O)[C@@H](Cc2ccccc2)N1Cc1ccc2nc(O)cnc2c1	7800	490	–
O=C1Nc2ccc(CN3C(=O)N(Cc4ccc5c(c4)C(=O)C(=O)N5)[C@H](Cc4ccccc4)[C@H](O)[C@@H](O)[C@H]3Cc3ccccc3)cc2C1=O	8500	0.81	–
O=C1N(Cc2ccc3[nH]ccc3c2)[C@H](Cc2ccccc2)[C@H](O)[C@@H](O)[C@@H](Cc2ccccc2)N1Cc1ccc2[nH]ccc2c1	190	1.3	–
O=C1N(Cc2ccc3ncoc3c2)[C@H](Cc2ccccc2)[C@H](O)[C@@H](O)[C@@H](Cc2ccccc2)N1Cc1ccc2ncoc2c1	440	3.4	–
O=C1N(Cc2ccc(CO)cc2)[C@H](Cc2ccccc2)[C@H](O)[C@@H](O)[C@@H](Cc2ccccc2)N1Cc1ccc(CO)cc1 [DMP-323]	100	–	clearance [3]: 118 mL/min/kg
Nc1nc2cc(CN3C(=O)N(Cc4ccc5[nH]c(N)nc5c4)[C@H](Cc4ccccc4)[C@H](O)[C@@H](O)[C@H]3Cc3ccccc3)ccc2[nH]1	8100	5.8	–
O=C1N(Cc2ccc3scnc3c2)[C@H](Cc2ccccc2)[C@H](O)[C@@H](O)[C@@H](Cc2ccccc2)N1Cc1ccc2scnc2c1	3200	28	–
